pIC50: −log10 of the molar value. Where two headings read alike, the source gives them in different places.
Key:
MIA PaCa-2 cells = assay: 3D-TGA; type: cell-based, human
A-427 cells = assay: 3D-TGA; type: cell-based, human; conditions: A-427, LUN, KRAS G12D
Protocol: (§1) Cells were seeded in 3D cultures in a black-walled, clear-bottom, non-tissue culture treated, 384-well plate (3000 cells per well) using a 1:1 mixture of BME and a custom media and grown in a humidified incubator with 5% CO2 and 5% O2, which approximates capillary levels for each gas, at 37° C. […] Cells were assessed for cell proliferation using EdU cell proliferation staining. […] Cells were permeabilized with 30 μL of filtered 0.5% Triton X-100 in PBS for 20 minutes at room temperature. Samples were washed twice gently with PBS. Cells were stained utilizing click-iT chemistry by adding 20 μL of staining cocktail containing 2 mM copper sulfate, 8 μM sulfo-Cy5-azide, and 20 mg/ml ascorbic acid in PBS and incubated 30-60 minutes at room temperature in dark. […] Plates were imaged with the Molecular Devices Pico ImageXpress. Images were segmented and percentage of cells with EdU incorporation was quantified to calculate antiproliferative effects of the drugs.
(§2) Five (5)-ethynyl-2′-deoxyuridine (EdU) data was represented as percentage EdU positive cells quantified by high content imaging from the Molecular Devices ImageXpress® Pico.

A549 cells = assay: 3D-TGA; type: cell-based, human; conditions: Homo sapiens; A549, LUN, KRAS G12S; read-out: IC50 in 3D-TGA, CDK-4-6 inhibitor alone
Protocol: as §1, §2

Calu-6 cells = assay: 3D-TGA; type: cell-based, human; conditions: Homo sapiens; Calu-6, LUN, KRAS Q61K; read-out: IC50 in 3D-TGA, CDK-4-6 inhibitor alone
Protocol: as §1, §2

HT-29 cells = assay: 3D-TGA; type: cell-based, human; conditions: Homo sapiens; HT-29, COL, BRAF V600E; read-out: IC50 in 3D-TGA, CDK-4-6 inhibitor alone
Protocol: as §1, §2

NCI-H508 cells = assay: 3D-TGA; type: cell-based; conditions: Homo sapiens
SK-CO-1 cells = assay: 3D-TGA; type: cell-based; conditions: Homo sapiens
LS411N cells = assay: 3D-TGA; type: cell-based; conditions: Homo sapiens, LS-411N
NCI-H358 cells = assay: 3D-TGA; type: cell-based, human
NCI-H1792 cells = assay: 3D-TGA; type: cell-based, human
NCI-H820 cells = assay: 3D-TGA; type: cell-based; conditions: Homo sapiens
NCI-H1975 cells = assay: 3D-TGA; type: cell-based; conditions: Homo sapiens
NCI-H1650 cells = assay: 3D-TGA; type: cell-based; conditions: Homo sapiens
NCI-H2172 cells = assay: 3D-TGA; type: cell-based; conditions: Homo sapiens
[1] = human, in vivo; cited from earlier work
[2] = in vivo
[3] = tested on: ERK-induced transcription in Colon-26 tumors; assay: Colon-26 tumor RNA sequencing, ERK transcriptome; type: in vivo, BALB/c mice; conditions: 100 mg/kg BID PO, day 18, Colon-26
[4] = tested on: tumor models (cell lines); assay: Humanized 3D tumor growth assay (3D-TGA), tumor model panel / other cell lines; type: cell-based, human; conditions: read-out: IC50 in 3D-TGA Ifebemetinib, KRAS G12D, agent alone
Text: The humanized 3D tumor growth assay (3D-TGA) is an extracellular matrix (ECM)-based, 3D tumor model that more faithfully mimics the human tumor microenvironment (TME) with the goal of improving translational fidelity to patients. See Casneuf T, et al., “Interleukin-6 is a potential therapeutic target in interleukin-6 dependent, estrogen receptor-α-positive breast cancer,” Breast Cancer (Dove Med Press). […] MEK inhibition in the 3D-TGA. […]
All cell lines were validated by IDEXX upon receipt and assay setup. See Appendix for full cell line list.
as §1, §2

AsPC-1 cells = assay: 3D-TGA; type: cell-based, human; conditions: read-out: IC50 in 3D-TGA Ifebemetinib; AsPC-1, PAN, KRAS G12D; agent alone
Protocol: as §1, §2

CL-40 cells = assay: 3D-TGA; type: cell-based, human; conditions: read-out: IC50 in 3D-TGA Ifebemetinib; CL-40, COL, KRAS G12D; agent alone
Protocol: as §1, §2

HCC-44 cells = assay: 3D-TGA; type: cell-based, human; conditions: read-out: IC50 in 3D-TGA Ifebemetinib; HCC-44, LUN, KRAS G12C; agent alone
Protocol: as §1, §2

HPAC cells = assay: 3D-TGA; type: cell-based, human; conditions: read-out: IC50 in 3D-TGA Ifebemetinib, PAN, KRAS G12D, agent alone
Protocol: as §1, §2

HPAF-II cells = assay: 3D-TGA; type: cell-based, human; conditions: read-out: IC50 in 3D-TGA Ifebemetinib, PAN, KRAS G12D, agent alone
Protocol: as §1, §2

LU99 cells = assay: 3D-TGA; type: cell-based, human; conditions: read-out: IC50 in 3D-TGA Ifebemetinib; LU99, LUN, KRAS G12C; agent alone
Protocol: as §1, §2

NCI-H2030 cells = assay: 3D-TGA; type: cell-based, human; conditions: read-out: IC50 in 3D-TGA Ifebemetinib; NCI-H2030, LUN, KRAS G12C; agent alone
Protocol: as §1, §2

NCI-H2122 cells = assay: 3D-TGA; type: cell-based, human; conditions: read-out: IC50 in 3D-TGA Ifebemetinib; NCI-H2122, LUN, KRAS G12C; agent alone
Protocol: as §1, §2

PANC-1 cells = assay: 3D-TGA; type: cell-based, human; conditions: read-out: IC50 in 3D-TGA Ifebemetinib; PANC-1, PAN, KRAS G12D; agent alone
Protocol: as §1, §2

Panc 10.05 cells = assay: 3D-TGA; type: cell-based, human; conditions: read-out: IC50 in 3D-TGA Ifebemetinib; Panc 10.05, PAN, KRAS G12D; agent alone
Protocol: as §1, §2

[5] = Homo sapiens, MIA PaCa-2, PAN, KRAS G12C, read-out: IC50 in 3D-TGA, CDK-4-6 inhibitor alone
[6] = Homo sapiens, read-out: IC50 in 3D-TGA, CDK-4-6 inhibitor alone

CCN1CCN(Cc2ccc(Nc3ncc(F)c(-c4cc(F)c5nc(C)n(C(C)C)c5c4)n3)nc2)CC1 [Abemaciclib, abemaciclib]
pIC50 (MIA PaCa-2 cells; [5]): 6.00 | pIC50 (A-427 cells; [6]): 6.30 to 7.00 | pIC50 (A549 cells): 6.30 to 7.00 | pIC50 (Calu-6 cells): 6.00 | pIC50 (HT-29 cells): 6.00

CN(C)C/C=C/C(=O)Nc1cc2c(Nc3ccc(F)c(Cl)c3)ncnc2cc1O[C@H]1CCOC1 [Afatinib, afatinib]
pIC50 (MIA PaCa-2 cells; Homo sapiens, MIA PaCa-2, read-out: IC50 in 3D-TGA Afatinib): 6.00 | pIC50 (NCI-H508 cells; NCI-H508, read-out: IC50 in 3D-TGA Afatinib): 6.00 to 6.30 | pIC50 (SK-CO-1 cells; SK-CO-1, read-out: IC50 in 3D-TGA Afatinib): 6.00 | pIC50 (LS411N cells; read-out: IC50 in 3D-TGA Afatinib): 6.00 | pIC50 (NCI-H358 cells; Homo sapiens, NCI-H358, read-out: IC50 in 3D-TGA Afatinib): 6.00 | pIC50 (NCI-H1792 cells; Homo sapiens, NCI-H1792, read-out: IC50 in 3D-TGA Afatinib): 6.00 | pIC50 (NCI-H820 cells; NCI-H820, read-out: IC50 in 3D-TGA Afatinib): 6.00 | pIC50 (NCI-H1975 cells; NCI-H1975, read-out: IC50 in 3D-TGA Afatinib): 6.00 | pIC50 (NCI-H1650 cells; NCI-H1650, read-out: IC50 in 3D-TGA Afatinib): 6.00 | pIC50 (NCI-H2172 cells; NCI-H2172, read-out: IC50 in 3D-TGA Afatinib): 6.00

C#Cc1cccc(Nc2ncnc3cc(OCCOC)c(OCCOC)cc23)c1 [Erlotinib, erlotinib]
pIC50 (MIA PaCa-2 cells; Homo sapiens, read-out: IC50 in 3D-TGA Erlotinib, MIA PACA-2, PAN, KRAS G12C, agent alone): 6.00 | pIC50 (NCI-H508 cells; read-out: IC50 in 3D-TGA Erlotinib, NCI-H508, COL, BRAF G596R, agent alone): 6.00 | pIC50 (SK-CO-1 cells; read-out: IC50 in 3D-TGA Erlotinib, SK-CO-1, COL, KRAS G12V, agent alone): 6.00 | pIC50 (LS411N cells; read-out: IC50 in 3D-TGA Erlotinib, LS411N, COL, BRAF V600E, agent alone): 6.00 | pIC50 (NCI-H358 cells; Homo sapiens, read-out: IC50 in 3D-TGA Erlotinib, NCI-H358, LUN, KRAS G12C, agent alone): 6.00 | pIC50 (NCI-H1792 cells; Homo sapiens, read-out: IC50 in 3D-TGA Erlotinib, NCI-H1792, LUN, KRAS G12C, agent alone): 6.00 | pIC50 (NCI-H820 cells; read-out: IC50 in 3D-TGA Erlotinib, NCI-H820, LUN, EGFR T790M, agent alone): 6.00 | pIC50 (NCI-H1975 cells; read-out: IC50 in 3D-TGA Erlotinib, NCI-H1975, LUN, EGFR L858R, agent alone): 6.00 | pIC50 (NCI-H1650 cells; read-out: IC50 in 3D-TGA Erlotinib, NCI-H1650, LUN, EGFR E746_A750 del, agent alone): 6.00 | pIC50 (NCI-H2172 cells; read-out: IC50 in 3D-TGA Erlotinib, NCI-H2172, LUN, EGFR L858R, agent alone): 6.00

CC(=O)c1c(C)c2cnc(Nc3ccc(N4CCNCC4)cn3)nc2n(C2CCCC2)c1=O [Palbociclib, palbociclib]
pIC50 (MIA PaCa-2 cells; [5]): 6.00 | pIC50 (A-427 cells; [6]): 6.00 to 6.30 | pIC50 (A549 cells): 6.30 to 7.00 | pIC50 (Calu-6 cells): 6.00 | pIC50 (HT-29 cells): 6.00

Cn1cnc2c(F)c(Nc3ccc(Br)cc3F)c(C(=O)NOCCO)cc21 [binimetinib]
half-lives [1]: 3.5 h

O=C(c1ccc(F)c(F)c1Nc1ccc(I)cc1F)N1CC(O)([C@@H]2CCCCN2)C1 [cobimetinib]
half-lives per cycle [2]: ≤ 0.55

Cn1cnc2c(F)c(Nc3ccc(Br)cc3Cl)c(C(=O)NOCCO)cc21 [selumetinib]
ERK transcriptome, 2 h vs 12 h post-dose [3]: sustained MAPK pathway suppression | half-lives [1]: 6.2 h

CC(=O)Nc1cccc(-n2c(=O)n(C3CC3)c(=O)c3c(Nc4ccc(I)cc4F)n(C)c(=O)c(C)c32)c1 [trametinib]
half-lives per cycle [2]: ≤ 0.25

ifebemetinib
pIC50 ([4]; COLO 678, COL): < 6.00 | pIC50 ([4]; T3M-10, LUN): < 6.00 | pIC50 (MIA PaCa-2 cells; read-out: IC50 in 3D-TGA Ifebemetinib, MIA PaCa-2, PAN, KRAS G12C, agent alone): < 6.00 | pIC50 (A-427 cells; read-out: IC50 in 3D-TGA Ifebemetinib, agent alone): < 6.00 | pIC50 (AsPC-1 cells): < 6.00 | pIC50 (CL-40 cells): < 6.00 | pIC50 (HCC-44 cells): < 6.00 | pIC50 (HPAC cells): < 6.00 | pIC50 (HPAF-II cells): < 6.00 | pIC50 (LU99 cells): < 6.00 | pIC50 (NCI-H2030 cells): 6.00 to 6.30 | pIC50 (NCI-H2122 cells): < 6.00 | pIC50 (PANC-1 cells): < 6.00 | pIC50 (Panc 10.05 cells): < 6.00 | pIC50 (NCI-H358 cells; read-out: IC50 in 3D-TGA Ifebemetinib, NCI-H358, LUN, KRAS G12C, agent alone): < 6.00 | pIC50 (NCI-H1792 cells; read-out: IC50 in 3D-TGA Ifebemetinib, NCI-H1792, LUN, KRAS G12C, agent alone): < 6.00

— patent US20260284005A1, “INHIBITING MITOGEN-ACTIVATED PROTEIN (MAP)/ERK KINASE (MEK)1 AND MEK2 AND RELATED METHODS OF TREATMENT” (priority 2023, published 2026)
